Data: patent US20240196898A1, “INSANITARY INSECT PEST CONTROL METHOD USING CONDENSED HETEROCYCLIC COMPOUND” (SUMITOMO CHEMICAL COMPANY, LIMITED, priority 2021, published 2024)

Columns and labels:
Format in all cases: in vivo
[1] = test system: little red worker ants (Monomorium pharaonis); assay: Test Example 3: vial inner-wall contact test, 1 hour exposure, little red worker ants; conditions: Monomorium pharaonis workers, after 1 day, read-out: Moribund and mortal rates (%) after 1 day; for mortality at 5 mg/m2: 5 mg/m^2 treated per area; for mortality at 100 mg/m2: 100 mg/m^2 treated per area; for mortality at 300 mg/m2: 300 mg/m^2 treated per area
Experimental: (§1) In a 20 mL volume vial, 0.2 mL of an acetone solution (containing 0.09% of a surfactant added therein) which contains prescribed amount of the present compound A, the present compound B, comparative compound 1, comparative compound 2, comparative compound 3, or comparative compound 4 was added dropwise and the inner wall of the vial was coated homogeneously with the chemicals and then air-dried. Thereafter, little red worker ants (Monomorium pharaonis) were released and the vial was sealed with a lid. After 1 hour, little red worker ants in the vial were transferred to a new plastic cup, followed by feeding 38 sucrose water. After 1 day, the number of dead and moribund individuals was examined, and moribund and mortal rates (%) were determined by the equation 3 below. Dead individuals are completely immobile individuals, and moribund individuals are individuals who cannot get up when turned on their backs, and are non-ambulatory.
Moribund and mortal rates (%)={(number of dead individuals+number of moribund individuals)/number of tested individuals}×100 (Equation 3)
The amount to be treated per area was set at 300, 100 and 5 mg/m^2.

[2] = test system: German cockroaches (Blattella germanica); assay: Test Example 1: vial inner-wall residual contact test, German cockroaches; conditions: German cockroach, read-out: Moribund and mortal rates (%); for mortality at 5 mg/m2: 5 mg/m^2 treated per area; for mortality at 50 mg/m2: 50 mg/m^2 treated per area; for mortality at 150 mg/m2: 150 mg/m^2 treated per area; for mortality at 300 mg/m2: 300 mg/m^2 treated per area; for mortality at 1000 mg/m2: 1,000 mg/m^2 treated per area
Experimental: as §1, with “five German cockroaches (Blattella germanica)” for “little red worker ants (Monomorium pharaonis)”, “After 1 hour, little red worker ants in the vial were transferred to a new plastic cup, followed by feeding 38 sucrose water. After 1 day, the number of dead and moribund individuals was examined, and moribund and mortal rates (%) were determined by the equation 3 below.” left out
Moribund and mortal rates (%)={(number of dead individuals+number of moribund individuals)/number of tested individuals}×100 (Equation 1)
The amount to be treated per area was set at 1000, 300, 150, 50 and 5 mg/m^2.

[3] = test system: African malaria mosquitos (Anopheles gambiae); assay: Test Example 2: vial inner-wall contact test, 50 minutes exposure, female adult African malaria mosquitos; conditions: Anopheles gambiae female adults, after 4 days, read-out: Moribund and mortal rates (%) after 4 days; for mortality at 5 mg/m2: 5 mg/m^2 treated per area; for mortality at 10 mg/m2: 10 mg/m^2 treated per area; for mortality at 300 mg/m2: 300 mg/m^2 treated per area
Experimental: In a 250 mL volume vial, 1.0 mL of an acetone solution (containing 0.09% of a surfactant added therein) which contains prescribed amount of the present compound A, the present compound B, comparative compound 1, comparative compound 2, comparative compound 3, or comparative compound 4 was added dropwise and the inner wall of the vial was coated homogeneously with the chemicals and then air-dried. Thereafter, female adult African malaria mosquitos (Anopheles gambiae) were released and the vial was sealed with a lid, followed by exposure for 50 minutes. 50 Minutes after exposure, African malaria mosquitos were transferred to a new plastic cup, followed by feeding sugar water. After 4 days, the number of dead and moribund individuals of African malaria mosquitos was examined, and moribund and mortal rates (%) were determined by the equation 2 below. Dead individuals are completely immobile individuals, and moribund individuals are individuals who are flightless and non-ambulatory.
Moribund and mortal rates (%)={(number of dead individuals+number of moribund individuals)/number of tested individuals}×100 (Equation 2)
The amount to be treated per area was set at 300, 10 and 5 mg/m^2.

[4] = test system: Formosan subterranean worker termites (Coptotermes formosanus); assay: Test Example 4: treated filter paper contact test, 1 hour exposure, Formosan subterranean worker termites; conditions: Coptotermes formosanus workers, after 3 days, read-out: Moribund and mortal rates (%) after 3 days; for mortality at 300 mg/m2: 300 mg/m^2 treated per area; for mortality at 500 mg/m2: 500 mg/m^2 treated per area; for mortality at 1000 mg/m2: 1,000 mg/m^2 treated per area
Experimental: 0.6 mL of an acetone solution containing prescribed amount of the present compound A, the present compound B, comparative compound 1, comparative compound 2, comparative compound 3, or comparative compound 4 was added dropwise on a filter paper having a diameter of 82 mm, followed by air drying. The filter paper was attached to a plastic petri dish having a diameter of 90 mm without gaps by adding dropwise 1.4 mL of water, and then Formosan subterranean worker termites (Coptotermes formosanus) were released and the vial was sealed with a lid, followed by exposure for 1 hours. After exposure for 1 hour, Formosan subterranean worker termites were transferred to a new plastic cup with bottom lined with the filter paper, followed by feeding water. After 3 days, the number of dead and moribund individuals of Formosan subterranean worker termites was examined, and moribund and mortal rates (%) were determined by the equation 4 below. Dead individuals are completely immobile individuals, and moribund individuals are individuals who are flightless and non-ambulatory.
Moribund and mortal rates (%)={(number of dead individuals+number of moribund individuals)/number of tested individuals}×100 (Equation 4)
The amount to be treated per area was set at 1,000, 500 and 300 mg/m^2.

SMILES | mortality at 5 mg/m2 [1] [%] | mortality at 100 mg/m2 [1] [%] | mortality at 300 mg/m2 [1] [%] | mortality at 5 mg/m2 [2] [%] | mortality at 50 mg/m2 [2] [%] | mortality at 150 mg/m2 [2] [%] | mortality at 300 mg/m2 [2] [%] | mortality at 1000 mg/m2 [2] [%] | mortality at 5 mg/m2 [3] [%] | mortality at 10 mg/m2 [3] [%] | mortality at 300 mg/m2 [3] [%] | mortality at 300 mg/m2 [4] [%] | mortality at 500 mg/m2 [4] [%] | mortality at 1000 mg/m2 [4] [%]
CCS(=O)(=O)c1cc(C(F)(F)F)cnc1-c1nc2cc([S+]([O-])C(F)(F)F)ccc2o1 (stereo not drawn) [Comparative compound 1] | 30 | 40 | 100 | 10 | 30 | 50 | 50 | 100 | 3 | 43 | 53 | 10 | 30 | 100
CCS(=O)(=O)c1cc(C(F)(F)F)cnc1-c1nc2cc(S(=O)(=O)C(F)(F)F)ccc2o1 [Comparative compound 2] | 20 | 50 | 100 | 10 | 10 | 20 | 50 | 100 | 8 | 13 | 15 | 10 | 20 | 100
CCS(=O)(=O)c1cc(C)cnc1-c1nc2cc([S+]([O-])C(F)(F)F)ccc2o1 (stereo not drawn) [Comparative compound 3] | 10 | 30 | 100 | 10 | 30 | 30 | 40 | 100 | 6 | 7 | 35 | 10 | 10 | 100
CCS(=O)(=O)c1cc(C)cnc1-c1nc2cc(S(=O)(=O)C(F)(F)F)ccc2o1 [Comparative compound 4] | 10 | 20 | 100 | 10 | 10 | 20 | 30 | 100 | 8 | 15 | 26 | 10 | 10 | 100
CCS(=O)(=O)c1cc(C2CC2)cnc1-c1nc2cc([S+]([O-])C(F)(F)F)ccc2o1 (stereo not drawn) [Present compound A] | 100 | 100 | 100 | 100 | 100 | 100 | 100 | 100 | 100 | 100 | 100 | 100 | 100 | 100
CCS(=O)(=O)c1cc(C2CC2)cnc1-c1nc2cc(S(=O)(=O)C(F)(F)F)ccc2o1 [Present compound B] | 100 | 100 | 100 | 100 | 100 | 100 | 100 | 100 | 100 | 100 | 100 | 100 | 100 | 100
